Source: US20060009506A1, “Drugs for the treatment of neoplastic disorders” (Odyssey Thera, Inc., priority 2004, published 2006)

Assays:
[1] = tested on: PC-3 cells; test: MTT proliferation assay, prostate adenocarcinoma PC-3; assay type: cell-based, Human; conditions: for IC50: Homo sapiens, Tumor Cell: Prostate (PC-3), MTT, 120 hours, concentrations tested in microM
Text: (§1) We first screened compounds derived from the known pharmacopeia and from a selected natural product collection using two types of assays: (a) measurements of post-translational modifications of proteins; (b) measurements of protein-protein interactions. For the purpose of measuring post-translational modifications of proteins, we used immunofluorescence methods combined with phospho-specific antibodies. For the purpose of quantifying and localizing protein complexes we used fluorescence methods based on protein-fragment complementation assays (PCA). ‘Hits’ from the initial screens were then tested for antiproliferative activity in up to 5 different human tumor cell lines. […] For drugs with antiproliferative activity in PC-3 cells, dose-response curves were generated to determine the EC50 for antiproliferative activity and additional tumor cell lines were tested to determine the breadth of activity. Methods for assay development, validation, screening, and testing of antiproliferative activity are described below.
(§2) Cells were maintained in various media as follows: A549, LoVo and PC-3 (Ham's F12K medium with 2 mM L-glutamine and 1.5 g/L sodium bicarbonate), MIA PaCa-2 (Dulbecco's modified Eagle's medium with 4 mM L-glutamine and 4.5 g/L glucose), U87-MG (MEM+Earle's BSS). Medium for each cell line was supplemented with 10% FBS and […] Penecillin/Streptomycin. All cells were grown in incubators set at 37° C., 5% CO2. Thiazolyl Blue Tetrazolium Bromide (MTT) based proliferation assays were performed to assess the anti-proliferative activities of the compounds on these cells. Cells were seeded in 96 well plates at a density of 750 cells/well 24 hours prior to compound treatment. The cells were incubated with varying concentrations of compounds for 120 hours. […] Drug treatment was performed in 5 replicate wells. Background absorbance was established by wells containing medium but no cells. Vehicle (DMSO) only was used as control. MTT (Sigma-Aldrich, St. Louis, Mo.) was added to each well at a final concentration of 0.5 mg/ml. Following a 2 hour incubation at 37° C., medium in the wells was replaced with 0.15 ml DMSO. The plates were agitated for 15 min using a microtiter plate shaker.

[2] = tested on: A549 cells; test: MTT proliferation assay, non-small cell lung carcinoma A549; assay type: cell-based, Human; conditions: Homo sapiens, Tumor Cell: NSCLC (A549), concentrations tested in microM
Text: as §1, §2

[3] = tested on: cancer pathways; test: Screening of cancer pathways in human cells (PCA and phospho-immunofluorescence); assay type: cell-based; conditions: cancer pathway in which the drug was active; screened at 10 micromolar, HEK293 cells
Text: as §1
Immunofluorescence was performed on drug-treated cells using antibodies that specifically recognize phosphorylated forms of key signaling proteins. HEK293T cells were seeded in black-walled, poly-lysine coated 96-well plates (Greiner) at a density of 30,000/well. After 24 hours, cells in duplicate wells were treated with drugs. 100 ng/ml hEGF added to the cells during the last 5 min of drug treatment. The cells were rinsed once with PBS and fixed with 4% formaldehyde for 10 min. The cells were subsequently permeabilized with 0.25% Triton X-100 in PBS and incubated with 3% BSA for 30 min to block non-specific antibody binding. Each of the 4 sets of identically treated cells were then incubated with rabbit antibodies against phosphorylated CREB (Ser133), hsp27 (Ser82), pERK (T202/Y204) (Cell Signaling), or BSA in PBS. The cells were rinsed with PBS and incubated with Alexa488 conjugated goat anti-rabbit secondary antibody (Molecular Probes). Cell nuclei were stained with Hoechst33342 (Molecular Probes). Images were acquired using Discovery-1 High Content Imaging System (Molecular Devices). Background fluorescence due to nonspecific binding by the secondary antibody was established with the use of cells that were incubated with BSA/PBS and without primary antibodies. Fluorescence intensities were quantitated using Image J-based image analysis algorithm as described below.
Reporter fragments for PCA were generated by oligonucleotide synthesis (Blue Heron Biotechnology, Bothell, Wash.). First, oligonucleotides coding for polypeptide fragments YFP[1]and YFP[2] […] Next, PCR mutagenesis was used to generate the mutant fragments IFP[1] and IFP[2]. The IFP[1] fragment corresponds to YFP[1]-(F46L, F64L, M153T) and the IFP[2] fragment corresponds to YFP[2]-(V163A, S175G). […] The YFP[1], YFP[2], IFP[1] and IFP[2] fragments were amplified by PCR to incorporate restriction sites and a linker sequence, described below, in configurations that would allow fusion of a gene of interest to either the 5′- or 3′-end of each reporter fragment. The reporter-linker fragment cassettes were subcloned into a mammalian expression vector (pcDNA3.1Z, Invitrogen) that had been modified to incorporate the replication origin (oriP) of the Epstein Barr virus (EBV). […] Additionally, these vectors still retain the SV40 origin, allowing for episomal expression in cell lines expressing the SV40 large T antigen (e.g. HEK293T, Jurkat or COS). […] PCA fusion constructs were prepared for a large number of proteins known to participate in cellular pathways (Table 1 and Table 2). The full coding sequence for each gene of interest was amplified by PCR from a sequence-verified full-length cDNA.

[4] = tested on: LoVo cells; test: MTT proliferation assay, colon adenocarcinoma LoVo; assay type: cell-based; conditions: Homo sapiens, Tumor Cell: Colon (LoVo), 120 hours, concentrations tested in microM
Text: as §1, §2

[5] = tested on: cancer cells; test: Antiproliferative activity against cancer cells (cell line not stated); assay type: cell-based, human; conditions: general statement
Text: as §1
Cells were maintained in various media as follows: A549, LoVo and PC-3 (Ham's F12K medium with 2 mM L-glutamine and 1.5 g/L sodium bicarbonate), MIA PaCa-2 (Dulbecco's modified Eagle's medium with 4 mM L-glutamine and 4.5 g/L glucose), U87-MG (MEM+Earle's BSS). Medium for each cell line was supplemented with 10% FBS and […] Penecillin/Streptomycin. All cells were grown in incubators set at 37° C., 5% CO2. Thiazolyl Blue Tetrazolium Bromide (MTT) based proliferation assays were performed to assess the anti-proliferative activities of the compounds on these cells. Cells were seeded in 96 well plates at a density of 750 cells/well 24 hours prior to compound treatment. The cells were incubated with varying concentrations of compounds for 120 hours. Compound concentrations range from 0.03 to 100 microM (half log increments) except for alpha-Tomatine (0.001-100 microM, half log increments), Neriifolin (0.0002-100 microM) and Peruvoside (0.01-100 microM). Drug treatment was performed in 5 replicate wells. Background absorbance was established by wells containing medium but no cells. Vehicle (DMSO) only was used as control. MTT (Sigma-Aldrich, St. Louis, Mo.) was added to each well at a final concentration of 0.5 mg/ml. Following a 2 hour incubation at 37° C., medium in the wells was replaced with 0.15 ml DMSO. The plates were agitated for 15 min using a microtiter plate shaker. […] Mean absorbance values were calculated from 5 replicate wells of each drug treatment following subtraction of background absorbance from blank samples and plotted as a percentage of control.

[6] = tested on: MIA PaCa-2 cells; test: MTT proliferation assay, pancreatic carcinoma MIA PaCa-2; assay type: cell-based; conditions: Homo sapiens, Tumor Cell: Pancreatic (MIA PaCa-2), concentrations tested in microM
Text: as §1, §2

[7] = tested on: U-87 MG cells; test: MTT proliferation assay, glioblastoma U-87 MG; assay type: cell-based; conditions: Homo sapiens, Tumor Cell: Glioblastoma (U-87 MG), 120 hours, concentrations tested in microM
Text: as §1, §2

How did the “Antiproliferative activity in the PC-3 assay” value ([1]; FIG. 1, compared to DMSO control) turn out when `Cc1cccc(Nc2cc(Cl)nc(SCC(=O)O)n2)c1C` [WY-14643] was run?
Its value is “inactive”.

For `CC(C)(C)c1ccc(C(O)CCCN2CCC(C(O)(c3ccccc3)c3ccccc3)CC2)cc1` (centres unmarked) [Terfenadine], which IC50 ([2]; A549, 120 h) is on record?
The IC50 was 550 nM.

What about the IC50 [1] of the same compound?
The IC50 was 1320 nM.

And the “Pathway Activity” value [3]?
Its value is “invasion/metastasis”.

What about the IC50 [4] of the same compound?
Its IC50 is 990 nM.

What about the “Antiproliferative activity against cancer cells” value [5] of the same compound?
The value was “substantial antiproliferative activity”.

What about the IC50 ([6]; MIA PaCa-2, 120 h) of the same compound?
Its IC50 is 350 nM.

And the IC50 [7]?
Its IC50 is 380 nM.

Which IC50 ([2]; A549, 120 h) does the source give for `CC1(C)CCC2=C(O1)c1ccccc1C(=O)C2=O` [beta-Lapachone] here?
Its IC50 is 230 nM.

What about the IC50 [1] of the same compound?
The IC50 was 630 nM.

What about the “Pathway Activity” value [3] of the same compound?
The value was “apoptosis”.

And the IC50 [4]?
The IC50 was 1400 nM.

What about the “Antiproliferative activity against cancer cells” value [5] of the same compound?
Its value is “substantial antiproliferative activity”.

And the IC50 ([6]; MIA PaCa-2, 120 h)?
The IC50 was 770 nM.

And the IC50 [7]?
Its IC50 is 860 nM.

How did the “Pathway Activity” value [3] turn out when `CC(C)c1c(C(=O)Nc2ccccc2)c(-c2ccccc2)c(-c2ccc(F)cc2)n1CC[C@@H](O)C[C@@H](O)CC(=O)O` [Atorvastatin] was run?
Its value is “invasion/metastasis”.

And the “Antiproliferative activity against cancer cells” value [5]?
The value was “substantial antiproliferative activity”.

And the IC50 [7]?
The IC50 was 4600 nM.

With `CC(C)COCC(CN(Cc1ccccc1)c1ccccc1)N1CCCC1` (centres unmarked) [Bepridil] as the compound, how does the IC50 ([2]; A549, 120 h) read?
Its IC50 is 4740 nM.

What about the “Pathway Activity” value [3] of the same compound?
Its value is “invasion/metastasis”.

What about the “Antiproliferative activity against cancer cells” value [5] of the same compound?
The value was “substantial antiproliferative activity”.

What about the IC50 ([6]; MIA PaCa-2, 120 h) of the same compound?
The IC50 was 1580 nM.

For `CCCSc1ccc2nc(NC(=O)OC)[nH]c2c1` [Albendazole], which IC50 ([2]; 120 hours) is on record?
The IC50 was 280 nM.

And the “Pathway Activity” value [3]?
The value was “invasion/metastasis”.

What about the “Antiproliferative activity against cancer cells” value [5] of the same compound?
The value was “substantial antiproliferative activity”.

And the IC50 ([6]; 120 hours)?
The IC50 was 140 nM.

What does the source list for `COC(=O)[C@H]1[C@H]2C[C@H]3c4[nH]c5cc(OC)ccc5c4CCN3C[C@H]2C[C@@H](OC(=O)c2cc(OC)c(OC)c(OC)c2)[C@@H]1OC` [Isoreserpine]?
IC50 ([2]; A549, 120 h): 3950 nM; IC50 [1]: 11700 nM; Pathway Activity [3]: apoptosis; IC50 [4]: 2730 nM; Antiproliferative activity against cancer cells [5]: substantial antiproliferative activity; IC50 ([6]; MIA PaCa-2, 120 h): 3920 nM; IC50 [7]: 9020 nM

With `O=C(Nc1ccc([N+](=O)[O-])cc1Cl)c1cc(Cl)ccc1O` [Niclosamide] as the compound, how does the IC50 ([2]; A549, 120 h) read?
The IC50 was 660 nM.

And the IC50 [1]?
The IC50 was 1330 nM.

What about the “Pathway Activity” value [3] of the same compound?
The value was “apoptosis”.

And the IC50 [4]?
The IC50 was 450 nM.

And the “Antiproliferative activity against cancer cells” value [5]?
The value was “substantial antiproliferative activity”.

And the IC50 ([6]; MIA PaCa-2, 120 h)?
Its IC50 is 590 nM.

What about the IC50 [7] of the same compound?
The IC50 was 810 nM.

Which results are given for `CN(C)CCCN1c2ccccc2Sc2ccccc21` [Promazine]?
IC50 ([2]; A549, 120 h): 11900 nM; Pathway Activity [3]: proliferation; Antiproliferative activity against cancer cells [5]: substantial antiproliferative activity; IC50 ([6]; MIA PaCa-2, 120 h): 1970 nM
